Assay results: ChEMBL document CHEMBL1153126, “Substituted tetrahydro-beta-carbolines as potential agents for the treatment of human papillomavirus infection” (Bioorg Med Chem Lett, 2010)

Assays:
[1] = Cytotoxicity against HFF cells; type: cell-based; conditions: human
[2] = tested on: Human papillomavirus type 16; test: Antiviral activity against Human papillomavirus - 16 infected in human W12-20850 cells by hybrid capture method; type: functional, organism-based; conditions: Human papillomavirus 16, W12-20850
[3] = Therapeutic index, CC50 for HFF cells to IC50 for Human papillomavirus - 16; type: cell-based; conditions: read-out: TI
[4] = Half life in rat at 1 mg/kg, iv; type: ADME, organism-based; parameters: dose 1 mg/kg, route intravenous; conditions: in vivo
[5] = Clearance in rat at 1 mg/kg, iv; type: ADME, organism-based; parameters: dose 1 mg/kg, route intravenous; conditions: in vivo
[6] = Oral bioavailability in mouse at 5 mg/kg; type: ADME, organism-based; conditions: in vivo

Row | Structure (SMILES) | CC50 [1] [µM] | IC50 [2] [µM] | selectivity ratio [3] | half-life [4] [h] | clearance [5] [mL/min/kg] | bioavailability [6] [%]
1 | CC(C)C[C@H]1c2[nH]c3ccc(Cl)cc3c2CCN1C(=O)CCc1ccccc1 | > 100 | 0.018 | – | – | – | –
2 | CC(C)CC1c2[nH]c3ccccc3c2CCN1C(=O)CCc1ccccc1 (stereo unspecified) | 22 | 0.33 | – | – | – | –
3 | O=C(CCc1ccccc1)N1CCc2c([nH]c3ccccc23)C1c1ccccc1 (stereo unspecified) | > 100 | 1.2 | – | – | – | –
4 | Cc1ccc([C@@H]2c3[nH]c4ccc(Cl)cc4c3CCN2C(=O)CCc2ccccc2)cc1 | > 100 | 7.7 | – | – | – | –
5 | O=C(CCc1ccccc1)N1CCc2c([nH]c3ccccc23)C1CCc1ccccc1 (stereo unspecified) | > 100 | 2.7 | – | – | – | –
6 | O=C(CCc1ccccc1)N1CCc2c([nH]c3ccccc23)C1CN1CCCC1 (stereo unspecified) | 16 | – | – | – | – | –
7 | O=C(CCc1ccccc1)N1CCc2c([nH]c3ccccc23)C1COCc1ccccc1 (stereo unspecified) | > 100 | 7.3 | – | – | – | –
8 | O=C(OCC1c2[nH]c3ccccc3c2CCN1C(=O)CCc1ccccc1)N1CCCC1 (stereo unspecified) | > 100 | > 100 | – | – | – | –
9 | Cc1ccc(C2c3[nH]c4c(C)cccc4c3CCN2C(=O)CCc2ccccc2)cc1 (stereo unspecified) | > 100 | 2.2 | > 100 | – | – | –
10 | Cc1ccc(C2c3[nH]c4ccccc4c3CCN2C(=O)Oc2cccc3ccccc23)cc1 (stereo unspecified) | > 100 | 23 | – | – | – | –
11 | Cc1ccc(C2c3[nH]c4ccccc4c3CCN2S(C)(=O)=O)cc1 (stereo unspecified) | > 100 | 23 | – | – | – | –
12 | Cc1ccc(C2c3[nH]c4ccc(F)cc4c3CCN2C(=O)CCc2ccccc2)cc1 (stereo unspecified) | > 100 | 0.44 | > 100 | – | – | –
13 | Cc1ccc(C2c3[nH]c4ccccc4c3CCN2C(=O)CCc2ccccc2)cc1 (stereo unspecified) | > 100 | 1.3 | 100 | – | – | –
14 | O=C(CCc1ccccc1)N1CCc2c([nH]c3ccccc23)C1COc1ccccc1 (stereo unspecified) | > 100 | 72 | – | – | – | –
15 | Cc1ccc(C2c3[nH]c4ccccc4c3CCN2C(=O)C#Cc2ccccc2)cc1 (stereo unspecified) | > 100 | 20 | – | – | – | –
16 | O=C(C1c2[nH]c3ccccc3c2CCN1C(=O)CCc1ccccc1)N1CCCC1 (stereo unspecified) | > 100 | > 100 | – | – | – | –
17 | COc1ccc2[nH]c3c(c2c1)CCN(C(=O)CCc1ccccc1)C3c1ccc(C)cc1 (stereo unspecified) | > 100 | 0.57 | > 100 | – | – | –

Row | Structure (SMILES) | CC50 [1] [µM] | IC50 [2] [µM] | selectivity ratio [3] | half-life [4] [h] | clearance [5] [mL/min/kg] | bioavailability [6] [%]
18 | COC(=O)N1CCc2c([nH]c3ccccc23)C1c1ccc(C)cc1 (stereo unspecified) | 31 | 1.7 | – | – | – | –
19 | Cc1ccc(C2c3[nH]c4ccccc4c3CCN2CC(C)C)cc1 (stereo unspecified) | 50 | 25 | – | – | – | –
20 | Cc1ccc(C2c3[nH]c4ccccc4c3CCN2C(=O)OCc2ccccc2)cc1 (stereo unspecified) | > 100 | 0.9 | – | – | – | –
21 | Cc1ccc(C2c3[nH]c4ccccc4c3CCN2C(=O)CCN(C)C)cc1 (stereo unspecified) | 40 | 15 | – | – | – | –
22 | COc1ccc(S(=O)(=O)N2CCc3c([nH]c4ccccc34)C2c2ccc(C)cc2)cc1 (stereo unspecified) | > 100 | 66 | – | – | – | –
23 | Cc1ccc(C2c3[nH]c4cc(F)ccc4c3CCN2C(=O)CCc2ccccc2)cc1 (stereo unspecified) | > 100 | 1.7 | > 100 | – | – | –
24 | O=C(CCc1ccccc1)N1CCc2c([nH]c3ccccc23)C1c1cccnc1 (stereo unspecified) | > 100 | > 100 | – | – | – | –
25 | COC(=O)C1c2[nH]c3ccccc3c2CCN1C(=O)CCc1ccccc1 (stereo unspecified) | > 100 | 20 | – | – | – | –
26 | Cc1ccc(C2c3[nH]c4ccccc4c3CCN2C(=O)/C=C/c2ccccc2)cc1 (stereo unspecified) | > 100 | 2.3 | – | – | – | –
27 | Cc1ccc(C2c3[nH]c4ccc(Cl)cc4c3CCN2C(=O)CCc2ccccc2)cc1 (stereo unspecified) | > 100 | 0.062 | > 100 | – | – | –
28 | Cc1ccc([C@H]2c3[nH]c4ccc(Cl)cc4c3CCN2C(=O)CCc2ccccc2)cc1 | > 100 | 0.023 | – | 6.2 | 3.6 | 73
29 | Cc1ccc(C2c3[nH]c4ccccc4c3CCN2Cc2ccccc2)cc1 (stereo unspecified) | 94 | 5.8 | – | – | – | –
30 | Cc1ccc(C2c3[nH]c4ccccc4c3CCN2C(=O)CCc2cccnc2)cc1 (stereo unspecified) | 94 | 18 | – | – | – | –
31 | COc1ccc2c3c([nH]c2c1)C(c1ccc(C)cc1)N(C(=O)CCc1ccccc1)CC3 (stereo unspecified) | > 100 | 5.8 | > 100 | – | – | –
32 | Cc1ccc(C2c3[nH]c4ccc(C)cc4c3CCN2C(=O)CCc2ccccc2)cc1 (stereo unspecified) | > 100 | 0.35 | > 100 | – | – | –
33 | CC(C)C[C@@H]1c2[nH]c3ccc(Cl)cc3c2CCN1C(=O)CCc1ccccc1 | > 100 | 0.88 | – | – | – | –
